{"source": "paper doi:10.1101/2025.01.17.633618", "about": "“Systematic Determination of the Impact of Structural Edits on Peptide Accumulation into Mycobacteria” (bioRxiv, 2025)", "key": {"Serum stability assay": {"assay": "Serum stability assay", "assay_type": "in vitro ADME", "details": "mouse serum, 37 °C, 1.0 mM peptide; time points 0, 15, 30, 60 min; RP-HPLC (C8), AUC normalized to internal standard Fmoc-L-phenylalanine", "method": "was added to the system. The systems were prepared using the CHARMM scripts provided by CHARMM-GUI.4 The CHARMM36m force field5 was employed for the MD simulations. After energy minimization and 500 ps equilibration, a 100 ns production run was performed. All production MD simulations were performed for the NPT ensemble at 303.15 K and 1 atm using NAMD3. Long-range electrostatic interactions were treated using the particle mesh Ewald (PME) method 6 while Lennard-Jones (LJ) interactions were managed with a force-based switching function applied between 10 Å and 12 Å. […] Hydrogen bonds between different residues within the same peptide were analyzed using the last 50 ns of the simulation.\nSerum stability assay. Time course degradation in mouse serum was evaluated for peptides Lin0, Cyc0, Nmet0 and Nmet9. […]\nThe samples were then centrifuged at 21,000×g for 5 min. […] 110 μL of the filtrate was then analyzed using Phenomenex Luna 5 µm C8(2) on RP-HPLC; gradient elution in H2O/CH3CN with 0.1% TFA at 1 mL/min. […]\nMinimum inhibitory concentration (MIC) assay. […] MIC values were determined both visually and readings of OD (wells OD < 0.1) from a Biotek Synergy H1 microplate reader at 600 nm."}, "[1]": {"tested_on": "Mycobacterium smegmatis strain mc2155 (Msm)"}}, "note": "Read-outs that look alike come from different tables or passages of the source. Bridge positions count the residues as written; N and C are the ends. Square brackets hold non-standard residues; d marks the D form. Peptide text beside a SMILES is read from it. * marks the point of attachment. Lys(N3) = [N-]=[N+]=NCCCC[C@H](N)C(=O)O; Azidoacetyl = [N-]=[N+]=NCC(=O)*; NMeF = CN[C@@H](Cc1ccccc1)C(=O)O; NMeL = CN[C@@H](CC(C)C)C(=O)O"}
{"smiles": "CC(=O)N[C@@H](CCCCN=[N+]=[N-])C(=O)N[C@@H](CC(C)C)C(=O)N[C@@H](CO)C(=O)N[C@@H](CCCCN)C(=O)N[C@@H](CO)C(=O)N[C@@H](Cc1ccccc1)C(N)=O", "note": "[Lin0] (Ac-[Lys(N3)]LSKSF-NH2)", "values": [{"measurement": "time to full degradation in serum", "setting": "Serum stability assay", "result": "≤ 1", "unit": "h"}]}
{"smiles": "CC(C)C[C@@H]1NC(=O)[C@H](CCCCN=[N+]=[N-])NC(=O)CSC[C@@H](C(=O)N[C@@H](Cc2ccccc2)C(N)=O)NC(=O)[C@H](CCCCN)NC(=O)[C@H](CO)NC1=O", "note": "[Cyc0] ({CH2CO}-[Lys(N3)]LSKCF-NH2; thioether N-5)", "values": [{"measurement": "apparent accumulation across the mycomembrane in Msm", "setting": "[1]; PAC-MAN, 50 μM compound, 2 h, 37 °C, chase 50 μM Fl-az 1 h, flow cytometry, mean ± SD n = 3", "result": "better accumulation than any other member of this macrocyclic sub-library"}]}
{"smiles": "CC(C)C[C@H](NC(=O)[C@H](CCCCN)NC(=O)CN=[N+]=[N-])C(=O)N[C@@H](CCCCN)C(=O)N(C)[C@@H](CC(C)C)C(=O)N(C)[C@@H](Cc1ccccc1)C(N)=O", "note": "[Nmet2] (Azidoacetyl-KLK[NMeL][NMeF]-NH2)", "values": [{"measurement": "apparent accumulation across the mycomembrane in Msm", "setting": "[1]", "result": "increase was even more pronounced"}]}
